# Measured values: ChEMBL document CHEMBL4130451, “Design and Synthesis of N-Aryl Phenoxyethoxy Pyridinones as Highly Selective and CNS Penetrant mGlu3 NAMs” (ACS Med Chem Lett, 2017)
# Activity calls are given as the source filed them. The calls are words filed in the database; no cut-off is given here.
# Columns and labels:
# [1] = biological target: 5-hydroxytryptamine receptor 3A (Homo sapiens) (UniProt P46098); assay: Inhibition of human 5-HT3 receptor at 10 uM relative to control
# [2] = biological target: Muscarinic acetylcholine receptor M3 (Homo sapiens) (UniProt P20309); assay: Inhibition of human muscarinic M3 receptor at 10 uM relative to control
# [3] = biological target: Sodium-dependent noradrenaline transporter (Homo sapiens) (UniProt P23975); assay: Inhibition of human NET at 10 uM relative to control
# [4] = biological target: Epidermal growth factor receptor (Homo sapiens) (UniProt P00533); assay: Inhibition of human EGF receptor at 10 uM relative to control
# [5] = biological target: Adenosine receptor A1 (Homo sapiens) (UniProt P30542); assay: Inhibition of human adenosine A1 receptor at 10 uM relative to control
# [6] = biological target: Metabotropic glutamate receptor 8 (Rattus norvegicus) (UniProt P70579); assay: Negative allosteric modulation of rat mGlu8 receptor expressed in HEK/GIRK cells assessed as inhibition of glutamate induced-calcium mobilization preincubated for 2.3 mins followed by glutamate addition measured for 2.6 mins by Fluo-4 AM dye based fluorescence assay; assay type: functional, cell-based
# [7] = biological target: Adenosine receptor A2a (Homo sapiens) (UniProt P29274); assay: Inhibition of human adenosine A2a receptor at 10 uM relative to control
# [8] = biological target: Cysteinyl leukotriene receptor 1 (Homo sapiens) (UniProt Q9Y271); assay: Inhibition of human cysteinyl cys leukotriene receptor 1 at 10 uM relative to control
# hERG (KCNH2) = hERG (KCNH2) (Homo sapiens, UniProt Q12809); assay: Inhibition of human ERG at 10 uM relative to control
# [9] = biological target: Beta-1 adrenergic receptor (Homo sapiens) (UniProt P08588); assay: Inhibition of human adrenergic beta1 receptor at 10 uM relative to control
# [10] = biological target: Melatonin receptor type 1A (Homo sapiens) (UniProt P48039); assay: Inhibition of human MT1 receptor at 10 uM relative to control
# [11] = biological target: Glutamate NMDA receptor (Rattus norvegicus) (UniProt P35439+Q00959+Q00960+Q00961+Q62645+Q8VHN2+Q9R1M7); assay: Inhibition of rat glutamate NMDA receptor glycine binding site at 10 uM relative to control; assay type: protein-complex assay
# Rattus norvegicus [12] = species on record: Rattus norvegicus; assay: Inhibition of rat P2Y receptor at 10 uM relative to control
# [13] = biological target: Gamma-aminobutyric acid type B receptor subunit 1 (Homo sapiens) (UniProt Q9UBS5); assay: Inhibition of human GABA-B1A receptor at 10 uM relative to control
# Cytochrome P450 1A2 = Cytochrome P450 1A2 (Homo sapiens, UniProt P05177); assay: Inhibition of CYP1A2 in human liver microsomes using phenacetin as substrate after 15 mins in presence of NADPH by LC/MS/MS analysis; assay type: ADME
# [14] = biological target: Neuropeptide Y receptor type 2 (Homo sapiens) (UniProt P49146); assay: Inhibition of human […] Y2 receptor at 10 uM relative to control
# [15] = biological target: Histamine H3 receptor (Homo sapiens) (UniProt Q9Y5N1); assay: Inhibition of human histamine H3 receptor at 10 uM relative to control
# Rattus norvegicus [16] = species on record: Rattus norvegicus; assay: Inhibition of rat sodium channel site 2 at 10 uM relative to control
# Rattus norvegicus [17] = species on record: Rattus norvegicus; assay: Inhibition of rat GABA receptor at 10 uM relative to control
# [18] = biological target: Alpha-1A adrenergic receptor (Rattus norvegicus) (UniProt P43140); assay: Inhibition of rat adrenergic alpha 1A receptor at 10 uM relative to control
# [19] = Unbound brain to plasma concentration ratio in Harlan CD-1 mouse at 3 mg/kg, ip by LC/MS-MS analysis; assay type: ADME, organism-based; details: read-out: K(p,uu,brain)
# [20] = biological target: Alpha-1B adrenergic receptor (Rattus norvegicus) (UniProt P15823); assay: Inhibition of rat adrenergic alpha 1B receptor at 10 uM relative to control
# [21] = biological target: D(2) dopamine receptor (Homo sapiens) (UniProt P14416); assay: Inhibition of human dopamine D2S receptor at 10 uM relative to control
# [22] = biological target: Muscarinic acetylcholine receptor M1 (Homo sapiens) (UniProt P11229); assay: Inhibition of human muscarinic M1 receptor at 10 uM relative to control
# [23] = biological target: Glucocorticoid receptor (Homo sapiens) (UniProt P04150); assay: Inhibition of human glucocorticoid receptor at 10 uM relative to control
# [24] = Ratio of drug uptake in Harlan CD-1 mouse brain at 3 mg/kg, ip to IC50 for negative allosteric modulation of rat mGlu3 receptor expressed in TREX cells coexpressing Galpha15; assay type: ADME, organism-based; details: in vivo
# [25] = Fraction unbound in rat brain homogenate at 5 uM after 6 hrs by equilibrium dialysis based LC/MS/MS analysis; assay type: ADME, tissue-based
# [26] = biological target: Delta-type opioid receptor (Homo sapiens) (UniProt P41143); assay: Inhibition of human delta 1 opioid receptor at 10 uM relative to control
# Homo sapiens [27] = species on record: Homo sapiens; assay: Inhibition of human nicotinic acetylcholine receptor at 10 uM relative to control
# [28] = Unbound brain-to-plasma concentration ratio in rat; assay type: ADME; details: read-out: K(p,uu,brain)
# [29] = biological target: L-type calcium channel, dihydropyridine site (Rattus norvegicus, UniProt P22002+P27732+Q02485); assay: Inhibition of rat L-type calcium channel dihydropyridine site at 10 uM relative to control; assay type: protein assay
# Homo sapiens [30] = species on record: Homo sapiens; assay: Inhibition of human dopamine D4.2 receptor at 10 uM relative to control
# [31] = biological target: Estrogen receptor (Homo sapiens) (UniProt P03372); assay: Inhibition of human ERalpha receptor at 10 uM relative to control
# [32] = biological target: Metabotropic glutamate receptor 5 (Rattus norvegicus, UniProt P31424); assay: Positive allosteric modulation of rat mGlu5 receptor expressed in HEK293A cells assessed as increase in glutamate induced-calcium mobilization preincubated for 2.3 mins followed by glutamate addition measured for 1.9 mins by Fluo-4 AM dye based fluorescence assay; assay type: functional, cell-based
# Rattus norvegicus [33] = species on record: Rattus norvegicus; assay: Inhibition of rat rolipram binding site at 10 uM relative to control
# [34] = biological target: Platelet-activating factor receptor (Homo sapiens) (UniProt P25105); assay: Inhibition of human platelet activating factor receptor at 10 uM relative to control
# [35] = biological target: Sodium-dependent serotonin transporter (Homo sapiens) (UniProt P31645); assay: Inhibition of human SERT at 10 uM relative to control
# [36] = biological target: Alpha-2A adrenergic receptor (Homo sapiens) (UniProt P08913); assay: Inhibition of human adrenergic alpha 2A receptor at 10 uM relative to control
# [37] = biological target: D(1A) dopamine receptor (Homo sapiens) (UniProt P21728); assay: Inhibition of human dopamine D1 receptor at 10 uM relative to control
# Rattus norvegicus [38] = species on record: Rattus norvegicus; assay: Inhibition of rat thyroid hormone receptor at 10 uM relative to control
# [39] = biological target: Metabotropic glutamate receptor 4 (Rattus norvegicus) (UniProt P31423); assay: Negative allosteric modulation of rat mGlu4 receptor expressed in HEK/GIRK cells assessed as inhibition of glutamate induced-calcium mobilization preincubated for 2.3 mins followed by glutamate addition measured for 2.6 mins by Fluo-4 AM dye based fluorescence assay; assay type: functional, cell-based
# Chain of Beta-1 adrenergic receptor (Homo sapiens) (P08588 whole entry, looked up): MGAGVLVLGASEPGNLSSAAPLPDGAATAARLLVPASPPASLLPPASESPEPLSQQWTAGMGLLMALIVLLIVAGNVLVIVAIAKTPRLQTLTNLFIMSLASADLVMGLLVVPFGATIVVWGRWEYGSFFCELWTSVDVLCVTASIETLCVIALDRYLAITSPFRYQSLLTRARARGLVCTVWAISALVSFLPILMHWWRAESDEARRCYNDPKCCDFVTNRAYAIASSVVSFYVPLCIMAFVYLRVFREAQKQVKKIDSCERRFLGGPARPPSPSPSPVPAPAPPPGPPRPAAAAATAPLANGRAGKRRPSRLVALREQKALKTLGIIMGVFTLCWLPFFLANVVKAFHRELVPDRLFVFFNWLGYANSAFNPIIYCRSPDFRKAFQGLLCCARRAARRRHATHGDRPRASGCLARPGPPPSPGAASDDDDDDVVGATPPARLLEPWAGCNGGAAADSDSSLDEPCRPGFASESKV
# Chain of Alpha-1A adrenergic receptor (Rattus norvegicus) (P43140 whole entry): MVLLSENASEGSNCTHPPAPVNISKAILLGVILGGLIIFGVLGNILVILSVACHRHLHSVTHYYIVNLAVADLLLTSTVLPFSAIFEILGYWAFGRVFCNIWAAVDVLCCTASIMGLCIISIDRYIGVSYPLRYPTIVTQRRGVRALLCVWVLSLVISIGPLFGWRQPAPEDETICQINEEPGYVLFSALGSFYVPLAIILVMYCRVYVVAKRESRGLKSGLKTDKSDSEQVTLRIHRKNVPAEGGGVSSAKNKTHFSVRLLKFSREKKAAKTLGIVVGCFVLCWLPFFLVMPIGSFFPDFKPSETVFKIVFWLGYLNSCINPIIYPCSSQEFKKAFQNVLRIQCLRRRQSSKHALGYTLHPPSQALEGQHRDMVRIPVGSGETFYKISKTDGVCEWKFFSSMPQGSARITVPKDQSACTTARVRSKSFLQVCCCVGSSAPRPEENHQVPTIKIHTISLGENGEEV
# Chain of Gamma-aminobutyric acid type B receptor subunit 1 (Homo sapiens) (Q9UBS5 whole entry): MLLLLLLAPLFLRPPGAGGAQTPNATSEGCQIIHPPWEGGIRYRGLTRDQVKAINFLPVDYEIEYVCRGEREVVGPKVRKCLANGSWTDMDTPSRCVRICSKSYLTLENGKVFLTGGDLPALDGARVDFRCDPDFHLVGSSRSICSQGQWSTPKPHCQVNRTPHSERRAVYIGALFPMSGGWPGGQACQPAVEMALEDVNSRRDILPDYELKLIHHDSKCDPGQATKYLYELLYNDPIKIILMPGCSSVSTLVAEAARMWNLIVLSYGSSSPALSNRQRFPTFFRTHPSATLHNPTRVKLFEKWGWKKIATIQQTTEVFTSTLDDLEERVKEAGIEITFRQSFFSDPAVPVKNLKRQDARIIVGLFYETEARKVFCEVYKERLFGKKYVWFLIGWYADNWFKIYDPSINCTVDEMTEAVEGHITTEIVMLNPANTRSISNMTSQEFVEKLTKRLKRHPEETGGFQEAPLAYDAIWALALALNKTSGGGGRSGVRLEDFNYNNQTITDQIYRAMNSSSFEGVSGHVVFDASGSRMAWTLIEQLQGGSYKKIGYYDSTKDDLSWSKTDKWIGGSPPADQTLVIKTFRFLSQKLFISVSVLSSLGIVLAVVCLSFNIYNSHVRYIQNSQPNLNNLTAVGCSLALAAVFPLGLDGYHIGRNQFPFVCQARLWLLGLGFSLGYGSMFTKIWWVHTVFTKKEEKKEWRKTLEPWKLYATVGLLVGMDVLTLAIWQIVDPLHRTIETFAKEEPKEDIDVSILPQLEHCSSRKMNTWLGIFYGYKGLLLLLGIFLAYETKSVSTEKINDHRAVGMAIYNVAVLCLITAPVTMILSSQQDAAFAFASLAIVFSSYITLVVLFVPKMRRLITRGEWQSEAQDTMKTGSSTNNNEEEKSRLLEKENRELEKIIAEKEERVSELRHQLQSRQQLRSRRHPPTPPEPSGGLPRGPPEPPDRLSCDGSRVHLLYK
# Chain of Alpha-1B adrenergic receptor (Rattus norvegicus) (P15823 whole entry): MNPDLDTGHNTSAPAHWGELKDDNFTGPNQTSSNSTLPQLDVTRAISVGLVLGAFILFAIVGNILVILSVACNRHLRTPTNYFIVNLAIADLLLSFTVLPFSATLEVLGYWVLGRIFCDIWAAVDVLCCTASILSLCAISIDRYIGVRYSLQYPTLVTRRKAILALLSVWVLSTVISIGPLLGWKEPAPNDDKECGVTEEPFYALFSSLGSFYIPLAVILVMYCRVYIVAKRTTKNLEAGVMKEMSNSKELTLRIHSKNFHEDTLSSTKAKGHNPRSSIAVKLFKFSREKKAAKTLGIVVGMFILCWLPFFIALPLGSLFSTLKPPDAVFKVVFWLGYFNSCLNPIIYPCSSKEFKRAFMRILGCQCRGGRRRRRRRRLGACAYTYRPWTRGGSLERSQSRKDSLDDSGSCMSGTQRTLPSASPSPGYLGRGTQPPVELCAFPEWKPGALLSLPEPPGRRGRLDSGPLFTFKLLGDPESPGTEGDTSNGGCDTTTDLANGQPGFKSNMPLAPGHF
# Chain of Epidermal growth factor receptor (Homo sapiens) (P00533 whole entry): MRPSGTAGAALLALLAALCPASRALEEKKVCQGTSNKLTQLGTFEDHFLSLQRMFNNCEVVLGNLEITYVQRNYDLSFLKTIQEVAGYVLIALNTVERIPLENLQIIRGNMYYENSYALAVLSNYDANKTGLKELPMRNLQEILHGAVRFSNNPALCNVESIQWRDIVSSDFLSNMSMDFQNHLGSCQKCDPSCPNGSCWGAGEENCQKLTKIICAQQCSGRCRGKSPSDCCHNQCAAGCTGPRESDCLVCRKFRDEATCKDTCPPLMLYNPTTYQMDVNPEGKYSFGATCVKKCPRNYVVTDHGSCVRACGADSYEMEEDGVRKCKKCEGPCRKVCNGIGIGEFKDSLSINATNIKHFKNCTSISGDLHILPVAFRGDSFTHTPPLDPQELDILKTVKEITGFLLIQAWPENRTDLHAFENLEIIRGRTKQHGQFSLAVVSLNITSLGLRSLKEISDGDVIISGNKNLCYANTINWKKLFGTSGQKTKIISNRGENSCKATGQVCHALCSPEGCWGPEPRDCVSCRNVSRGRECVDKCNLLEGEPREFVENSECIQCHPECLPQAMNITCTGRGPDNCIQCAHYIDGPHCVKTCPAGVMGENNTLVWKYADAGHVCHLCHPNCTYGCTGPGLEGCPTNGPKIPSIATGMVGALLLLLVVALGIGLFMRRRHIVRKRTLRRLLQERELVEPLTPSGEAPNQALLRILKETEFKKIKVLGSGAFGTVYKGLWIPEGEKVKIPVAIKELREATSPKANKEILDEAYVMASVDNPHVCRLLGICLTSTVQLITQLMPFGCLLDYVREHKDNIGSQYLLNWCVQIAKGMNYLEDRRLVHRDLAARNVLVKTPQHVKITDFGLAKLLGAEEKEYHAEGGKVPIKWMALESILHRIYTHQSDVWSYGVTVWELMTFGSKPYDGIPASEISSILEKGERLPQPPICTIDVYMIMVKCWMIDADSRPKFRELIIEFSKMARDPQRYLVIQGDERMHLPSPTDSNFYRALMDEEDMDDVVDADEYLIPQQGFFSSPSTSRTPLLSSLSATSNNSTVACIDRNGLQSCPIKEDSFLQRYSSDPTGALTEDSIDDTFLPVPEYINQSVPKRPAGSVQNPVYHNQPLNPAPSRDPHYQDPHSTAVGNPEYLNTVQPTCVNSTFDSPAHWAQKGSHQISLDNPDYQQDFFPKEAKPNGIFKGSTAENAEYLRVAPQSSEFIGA
# Chain of Sodium-dependent noradrenaline transporter (Homo sapiens) (P23975 whole entry): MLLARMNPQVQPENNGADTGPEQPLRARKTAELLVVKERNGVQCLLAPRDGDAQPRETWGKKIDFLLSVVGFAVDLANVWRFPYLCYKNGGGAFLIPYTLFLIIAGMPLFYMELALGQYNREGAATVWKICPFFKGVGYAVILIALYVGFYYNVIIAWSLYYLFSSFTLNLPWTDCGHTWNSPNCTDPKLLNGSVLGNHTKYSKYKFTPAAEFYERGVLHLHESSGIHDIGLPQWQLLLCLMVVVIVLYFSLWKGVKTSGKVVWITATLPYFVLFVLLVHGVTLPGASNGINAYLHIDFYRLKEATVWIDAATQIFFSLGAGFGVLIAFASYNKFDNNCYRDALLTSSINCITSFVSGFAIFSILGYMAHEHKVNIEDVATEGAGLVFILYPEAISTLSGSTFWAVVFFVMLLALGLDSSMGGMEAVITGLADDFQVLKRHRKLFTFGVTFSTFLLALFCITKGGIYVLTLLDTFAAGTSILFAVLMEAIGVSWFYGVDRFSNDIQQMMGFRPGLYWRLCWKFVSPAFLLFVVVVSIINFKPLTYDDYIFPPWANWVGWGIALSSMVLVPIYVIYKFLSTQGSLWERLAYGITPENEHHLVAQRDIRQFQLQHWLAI
# Chain of 5-hydroxytryptamine receptor 3A (Homo sapiens) (P46098 whole entry): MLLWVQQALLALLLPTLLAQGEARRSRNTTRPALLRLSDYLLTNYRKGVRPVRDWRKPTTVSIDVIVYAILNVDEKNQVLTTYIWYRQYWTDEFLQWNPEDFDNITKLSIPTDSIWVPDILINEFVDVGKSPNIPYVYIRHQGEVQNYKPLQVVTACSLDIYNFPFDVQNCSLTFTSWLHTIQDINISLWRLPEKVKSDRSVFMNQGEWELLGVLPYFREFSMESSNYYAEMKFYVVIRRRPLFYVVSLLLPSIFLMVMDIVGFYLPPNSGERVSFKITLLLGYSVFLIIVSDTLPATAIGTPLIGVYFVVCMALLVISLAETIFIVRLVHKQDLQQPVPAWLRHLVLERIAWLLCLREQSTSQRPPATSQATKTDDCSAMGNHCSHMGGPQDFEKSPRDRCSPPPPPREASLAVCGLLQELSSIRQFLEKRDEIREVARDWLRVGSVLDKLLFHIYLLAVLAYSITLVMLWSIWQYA
# Chain of Adenosine receptor A1 (Homo sapiens) (P30542 whole entry): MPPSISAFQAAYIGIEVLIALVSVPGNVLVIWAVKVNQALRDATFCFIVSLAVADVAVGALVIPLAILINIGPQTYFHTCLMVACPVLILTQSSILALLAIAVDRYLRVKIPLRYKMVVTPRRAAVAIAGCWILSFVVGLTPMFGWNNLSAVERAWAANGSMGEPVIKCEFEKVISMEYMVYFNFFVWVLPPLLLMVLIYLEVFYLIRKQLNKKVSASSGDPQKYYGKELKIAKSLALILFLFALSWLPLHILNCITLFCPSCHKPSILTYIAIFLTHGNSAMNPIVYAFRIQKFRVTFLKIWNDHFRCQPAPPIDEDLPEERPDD
smiles,measurement,setting,value
C[C@@H](COc1ccn(-c2ccc(F)cc2)c(=O)c1)Oc1ccccc1,inhibition,[1],> 50%
same,inhibition,[2],> 50%
same,inhibition,[3],> 50%
same,inhibition,[4],> 50%
same,inhibition,[5],> 50%
same,inhibition,[6],inactive
same,inhibition,[7],> 50%
same,inhibition,[8],> 50%
same,inhibition at 10 µM,hERG (KCNH2),> 50%
same,inhibition,[9],> 50%
same,inhibition,[10],> 50%
same,inhibition,[11],> 50%
same,inhibition,Rattus norvegicus [12],> 50%
same,inhibition,[13],> 50%
same,IC50,Cytochrome P450 1A2,> 30 µM
same,inhibition,[14],> 50%
same,inhibition,[15],> 50%
same,inhibition,Rattus norvegicus [16],> 50%
same,inhibition,Rattus norvegicus [17],> 50%
same,inhibition,[18],> 50%
same,Kp uu,[19],0.27
same,inhibition,[20],> 50%
same,inhibition,[21],> 50%
same,inhibition,[22],> 50%
same,inhibition,[23],> 50%
same,Ratio,[24],5
same,"fraction unbound at 6 h, 5 µM",[25],0.06
same,inhibition,[26],> 50%
same,inhibition,Homo sapiens [27],> 50%
same,Kp uu,[28],0.4
same,inhibition at 10 µM,[29],> 50%
same,inhibition,Homo sapiens [30],> 50%
same,inhibition,[31],> 50%
same,EC50,[32],> 30 µM
same,inhibition,Rattus norvegicus [33],> 50%
same,inhibition,[34],> 50%
same,inhibition,[35],> 50%
same,inhibition,[36],> 50%
same,inhibition,[37],> 50%
same,inhibition,Rattus norvegicus [38],> 50%
same,inhibition,[39],inactive
